Experiments:
hemoglobin S = hemoglobin S (Homo sapiens, UniProt P68871+P69905, E7V); conditions: in solution and in intact red cells; cited from earlier work
[1] = orally administered; extensive metabolism in the intestines and liver; cited from earlier work
[2] = cited from earlier work
[3] = Pharmacokinetic study of vanillin-thiazolidine adduct and vanillin by oral administration in rats (vanillin in blood by HPLC); format: in vivo, Sprague-Dawley rats; conditions: oral gavage, blood concentration-time curves 2-180 min
Method: Sixteen Sprague-Dawley rats (male, 200-300 g) were catheterized at the carotid at least 12 hours before drug administration and the catheter was flushed with heparin solution to prevent line clotting. […] Blood samples were collected by unhooking the flush syringe and letting the blood flow freely into centrifuge tubes at predetermined time points, i.e., 2, 5, 10, 15, 30, 45, 60, 90, 120 and 180 minutes after gavage. To each 100 μl of blood sample was added 400 μl of perchloric acid in a centrifuge tube. After vigorously vortexing, the samples in centrifuge tubes were spun down at 13,000 rpm for 10 min.
A striking difference was noted between the pharmacokinetic profiles of vanillin-thiazolidine and of unmodified vanillin.
Noncompartmental pharmacokinetic analysis was then carried out using WinNolin (Pharsight Inc., Mountain View, Calif.) and the results are summarized in Table 1, below. […] The maximum concentration at 2 minutes (Cmax) was also approximately 4 times higher in the former compared to the latter.

[4] = Hydrophobicity compared with vanillin; format: physicochemical
Excerpt: It is well known that vanillin can be extensively metabolized by intestinal bacteria and the liver (Strand and Scheline, supra). It is likely that the vanillin-derived thiazolidine is not easily metabolized by the same routes.

COc1cc(C=O)ccc1O [Vanillin, 4-hydroxy-3-methoxybenzaldehyde]
oxygen affinity of hemoglobin S (hemoglobin S): marked increase in oxygen affinity | oral bioavailability [1]: poorly bioavailable | body and organ weights, hemotology, histopathology, test vs control rats ([2]; 1.0% of the diet for 16 weeks, 2.0% and 5.0% for 1 year, or 0.5%, 1.0% and 2.0% for 2 years): no significant differences | toxicity on extended feeding ([2]; rats, vanillin at high levels for extensive periods): No toxicity was observed | vanillin levels in the blood and half-life (FIG. 1 profile, in words) [3]: low with a short half-life

CCOC(=O)C1CSC(c2ccc(O)c(OC)c2)N1 (stereo not shown) [Vanillin-Thiazolidine Adduct, Ethyl 2-(4-hydroxy-3-methoxyphenyl)-1,3-thiazolidine-4-carboxylate]
hydrophobicity relative to vanillin [4]: more hydrophobic than vanillin | vanillin levels in the blood and half-life (FIG. 1 profile, in words) [3]: higher, with a much longer half-life

Reference: patent US20030022923A1, “Methods for treatment of sickle cell anemia” (Medinox, Inc., priority 2001, published 2003)
